In experiment [1] the target is T1, glutathione-S-transferase (GST) tagged LXRbeta LBD (ligand binding domain) (Homo sapiens, UniProt P55055).
T1 construct: purchased Invitrogen pv4658.pps
T1 sequence (P55055 222-460 limits assumed): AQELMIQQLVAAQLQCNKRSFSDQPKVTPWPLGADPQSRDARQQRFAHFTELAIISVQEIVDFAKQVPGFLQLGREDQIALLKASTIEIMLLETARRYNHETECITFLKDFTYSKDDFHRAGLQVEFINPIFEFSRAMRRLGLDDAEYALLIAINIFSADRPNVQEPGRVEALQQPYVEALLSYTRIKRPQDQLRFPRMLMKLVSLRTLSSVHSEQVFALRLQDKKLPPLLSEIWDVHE
Description: LanthaScreen TR-FRET Liver X Receptor Coactivator Assay, co-activator recruitment to LXRbeta LBD. The conditions noted are these: for EC50: co-activator recruitment to GST-LXRbeta LBD, TR-FRET, read-out: LXR beta IP (Inflection Point, potency); for Emax: read-out: LXR beta Activity @ max dose. The experiment is classed as biochemical. The method in brief:
(§1)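 GST-tagged LBD added to test compound, then fluorescein-labelled coactivator peptide plus terbium anti-GST antibody; incubated at room temperature, TR-FRET read. Potency given as inflection point and efficacy as Emax relative to reference dual agonist T0901317.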
Background: TR-FRET usually uses a lanthanide donor and a delayed reading to cut background.

Experiment [2] concerns the target T2, glutathione-S-transferase (GST) tagged LXRalpha LBD (ligand binding domain) (Homo sapiens, UniProt Q13133).
T2 construct: purchased Invitrogen pv4655
T2 sequence (Q13133 209-447 limits assumed): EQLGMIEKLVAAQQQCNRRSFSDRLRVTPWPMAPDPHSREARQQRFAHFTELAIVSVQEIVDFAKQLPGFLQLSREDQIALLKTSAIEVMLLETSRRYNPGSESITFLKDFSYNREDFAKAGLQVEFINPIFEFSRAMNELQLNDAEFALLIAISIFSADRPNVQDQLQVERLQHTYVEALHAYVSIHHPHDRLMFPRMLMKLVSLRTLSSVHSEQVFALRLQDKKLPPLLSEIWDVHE
Description: LanthaScreen TR-FRET Liver X Receptor Coactivator Assay, co-activator recruitment to LXRalpha LBD. Type of experiment: biochemical. To be noted: for EC50 / LXR alpha IP (Inflection Point, potency): co-activator recruitment to GST-LXRalpha LBD, TR-FRET; for EC50: read-out: LXR alpha IP (Inflection Point, potency); for Emax: read-out: LXR alpha Activity @ max dose. Summed up: as §1

Setting [3] is: efficacy in relation to reference dual agonist T0901317.

Like-named read-outs stand apart in the source and are kept apart here.

With `CN(C)C(=O)c1ccc(N2CCC(CC3CCN(S(=O)(=O)c4cccs4)CC3)CC2)cc1Cl` [Example 13-4, 2-chloro-N,N-dimethyl-4-(4-{[1-(thiopen-2-ylsulfonyl)piperidin-4-yl]methyl}piperidin-1-yl)benzamide], the values for the EC50 in experiment [1] and in experiment [2] were 26 nM and 264 nM, respectively. Besides, the figures for the Emax in experiment [1] (setting [3]) and in experiment [2] (setting [3]) were 67% and 43%, respectively.

Regarding `CN(C)C(=O)c1ccc(N2CCC(CC3CCN(S(=O)(=O)c4cc(F)ccc4F)CC3)CC2)cc1Cl` [Example 13-5, 2-chloro-4-[4-({1-[(2,5-difluorophenyl)-sulfonyl]piperidin-4-yl}methyl)piperidin-1-yl]-N,N-dimethylbenzamide], the values for the EC50 in experiment [1] and in experiment [2] were 52 nM and 590 nM, respectively. Further, the Emax is 63% in experiment [1] (setting [3]) and 33% in experiment [2] (setting [3]).

For `CN(C)C(=O)c1ccc(N2CCC(CC3CCN(S(=O)(=O)c4cc(F)cc(F)c4)CC3)CC2)cc1Cl` [Example 13-6, 2-chloro-4-[4-({1-[(3,5-difluorophenyl)-sulfonyl]piperidin-4-yl}methyl)piperidin-1-yl]-N,N-dimethylbenzamide], the EC50 in experiment [1] was 75 nM. In addition, the Emax in experiment [1] (setting [3]) worked out at 41%; in experiment [2] (setting [3]), 12%. Besides, in experiment [2], the “LXR alpha IP (Inflection Point, potency)” value was “NO IP”.

As to `CN(C)C(=O)c1ccc(N2CCC(CC3CCN(S(=O)(=O)c4cccc(F)c4)CC3)CC2)cc1Cl` [Example 13-7, 2-chloro-4-[4-({1-[(3-fluorophenyl)sulfonyl]-piperidin-4-yl}methyl)-piperidin-1-yl]-N,N-dimethylbenzamide], the EC50 in experiment [1] worked out at 60 nM; in experiment [2] it was 1190 nM. Also, the Emax in experiment [1] (setting [3]) came to 67%; in experiment [2] (setting [3]) it was 25%.

`CN(C)C(=O)c1ccc(N2CCC(CC3CCN(S(=O)(=O)c4ccccc4F)CC3)CC2)cc1Cl` [Example 13-8, 2-chloro-4-[4-({1-[(2-fluorophenyl)sulfonyl]-piperidin-4-yl}methyl)-piperidin-1-yl]-N,N-dimethylbenzamide]: the EC50 in experiment [1] was determined as 43 nM; in experiment [2], 935 nM. In addition, the Emax in experiment [1] (setting [3]) worked out at 95%; in experiment [2] (setting [3]), 46%.

For `CN(C)C(=O)c1ccc(N2CCC(CC3CCN(S(=O)(=O)c4ccc(Cl)s4)CC3)CC2)cc1Cl` [Example 13-9, 2-chloro-4-[4-({1-[(5-chlorothiophen-2-yl)-sulfonyl]piperidin-4-yl}methyl)piperidin-1-yl]-N,N-dimethylbenzamide], in experiment [1], the EC50 is 230 nM. The Emax in experiment [1] (setting [3]) was 20%; in experiment [2] (setting [3]) it was 0%. In experiment [2], the “LXR alpha IP (Inflection Point, potency)” value is “NO IP”.

For the compound `CN(C)C(=O)c1ccc(N2CCC(CC3CCN(S(=O)(=O)c4cccc(OC(F)F)c4)CC3)CC2)cc1Cl` [Example 13-10, 2-chloro-4-{4[(1-{[3-(difluoromethoxy)-phenyl]sulfonyl}-piperidin-4-yl)methyl]-piperidin-1-yl}-N,N-dimethylbenzamide], in experiment [1], the EC50 worked out at 104 nM. The Emax was 52% in experiment [1] (setting [3]) and 5% in experiment [2] (setting [3]). The “LXR alpha IP (Inflection Point, potency)” value in experiment [2] is recorded as “NO IP”.

As for `COc1cccc(S(=O)(=O)N2CCC(CC3CCN(c4ccc(C(=O)N(C)C)c(Cl)c4)CC3)CC2)c1` [Example 13-11, 2-chloro-4-[4({1-[(3-methoxyphenyl)-sulfonyl]piperidin-4-yl}methyl)piperidin-1-yl]-N,N-dimethyl-benzamide], the EC50 was found to be 98 nM in experiment [1] and 733 nM in experiment [2]. For the same compound, the Emax was determined as 64% in experiment [1] (setting [3]) and 23% in experiment [2] (setting [3]).

For `CN(C)C(=O)c1ccc(N2CCC(CC3CCN(S(=O)(=O)c4cccc(Br)c4)CC3)CC2)cc1Cl` [Example 13-12, 4-[4-({1-[(3-bromo-phenyl)sulfonyl]-piperidin-4-yl}methyl)-piperidin-1-yl]-2-chloro-N,N-dimethyl-benzamide], the EC50 in experiment [1] came to 83 nM. Further, the Emax in experiment [1] (setting [3]) was 54%; in experiment [2] (setting [3]), 16%. Also, the “LXR alpha IP (Inflection Point, potency)” value in experiment [2] is “NO IP”.

In the case of `CN(C)C(=O)c1ccc(N2CCC(CC3CCN(S(=O)(=O)c4cccc(Cl)c4)CC3)CC2)cc1Cl` [Example 13-13, 2-chloro-4-[4-({1-[(3-chlorophenyl)sulfonyl]-piperidin-4-yl}methyl)-piperidin-1-yl]-N,N-dimethylbenzamide], the EC50 in experiment [1] was found to be 74 nM. For the same compound, the results for the Emax in experiment [1] (setting [3]) and in experiment [2] (setting [3]) were 49% and 15%, respectively. Also, in experiment [2], the “LXR alpha IP (Inflection Point, potency)” value is listed as “NO IP”.

For `CN(C)C(=O)c1ccc(N2CCC(CC3CCN(S(=O)(=O)c4ccc(F)cc4)CC3)CC2)cc1Cl` [Example 13-14, 2-chloro-4-[4-({1-[(4-fluorophenyl)sulfonyl]-piperidin-4-yl}methyl)-piperidin-1-yl]-N,N-dimethylbenzamide], the values for the EC50 in experiment [1] and in experiment [2] were 497 nM and 2730 nM, respectively. The results for the Emax in experiment [1] (setting [3]) and in experiment [2] (setting [3]) were 58% and 24%, respectively.

`CN(C)C(=O)c1ccc(N2CCC(CC3CCN(S(=O)(=O)c4cc(F)cc(C(F)(F)F)c4)CC3)CC2)cc1Cl` [Example 13-15, 2-chloro-4-{4-[(1-{[3-fluoro-5-(trifluoro-methyl)phenyl]-sulfonyl}piperidin-4-yl)methyl]piperidin-1-yl}-N,N-dimethylbenzamide]: in experiment [1], the EC50 came out at 171 nM. For the same compound, the values for the Emax in experiment [1] (setting [3]) and in experiment [2] (setting [3]) were 32% and 0%, respectively. The “LXR alpha IP (Inflection Point, potency)” value in experiment [2] is “NO IP”.

With `CN(C)C(=O)c1ccc(N2CCC(CC3CCN(S(=O)(=O)c4cccc(OC(F)(F)F)c4)CC3)CC2)cc1Cl` [Example 13-16], the EC50 in experiment [1] came out at 135 nM. Also, the Emax came out at 35% in experiment [1] (setting [3]) and 0% in experiment [2] (setting [3]). Further, in experiment [2], the “LXR alpha IP (Inflection Point, potency)” value was “NO IP”.

Consider `CN(C)C(=O)c1ccc(N2CCC(CC3CN(S(=O)(=O)c4ccccc4)C3)CC2)nc1Cl` [Example 14-1, 2-chloro-N,N-dimethyl-6-(4-((1-(phenylsulfonyl)azetidin-3-yl)methyl)piperidin-1-yl)nicotinamide], for which the results for the EC50 in experiment [1] and in experiment [2] were 44 nM and 3430 nM, respectively. For the same compound, the Emax worked out at 111% in experiment [1] and 55% in experiment [2].

Take `COc1cccc(S(=O)(=O)N2CC(CC3CCN(c4ccc(C(=O)N(C)C)c(Cl)n4)CC3)C2)c1` [Example 14-2, 2-chloro-6-[4-({1-[(3-methoxyphenyl)-sulfonyl]azetidin-3-yl}methyl)piperidin-1-yl}-N,N-dimethyl-pyridine-3-carboxamide]: the EC50 in experiment [1] is 50 nM; in experiment [2], 10300 nM. In addition, the Emax in experiment [1] (setting [3]) came to 93%; in experiment [2] (setting [3]) it was 45%.

Regarding `COc1cccc(CS(=O)(=O)N2CC(CC3CCN(c4ccc(C(=O)N(C)C)c(Cl)n4)CC3)C2)c1` [Example 14-3, 2-chloro-6-[4({1-[(3-methoxybenzyl)-sulfonyl]azetidin-3-yl}methyl)piperidin-1-yl]-N,N-dimethyl-pyridine-3-carboxamide], in experiment [1], the EC50 turned out to be 1510 nM. Moreover, the Emax in experiment [1] (setting [3]) was determined as 48%; in experiment [2] (setting [3]), 5%. Besides, the “LXR alpha IP (Inflection Point, potency)” value in experiment [2] is “NO IP”.

Values taken from patent publication US10752587B2, “Homobispiperidinyl derivatives as liver X receptor beta agonists, compositions and their use” (Merck Sharp & Dohme Corp., priority 2015, dated 2020).
